Laboratory results taken from PMC5390315 (Scientific Reports, 2017).
Where “and” joins values, the source holds several entries; their conditions need not be identical. Equal entries are not always repeated. Where two headings read alike, the source gives them in different places.

Experiments:
[1] = test system: Jurkat; assay: Antiproliferative MTT assay, Jurkat; format: cell-based, human; conditions: 72 h, mean ± SE
Protocol: (§1) Human T-cell leukemia (Jurkat) and human B-cell leukemia (SEM and RS4;11) cells were grown in RPMI-1640 medium (Gibco, Milano, Italy). Breast adenocarcinoma (MCF-7), human cervix carcinoma (HeLa), human lung adenocarcinoma (A549) and human colon adenocarcinoma (HT-29) cells were grown in DMEM medium (Gibco, Milano, Italy), all supplemented with 115 units/mL penicillin G (Gibco, Milano, Italy), 115 μg/mL streptomycin (Invitrogen, Milano, Italy), and 10% fetal bovine serum (FBS; Invitrogen, Milano, Italy). Stock solutions (10 mM) of the different compounds were obtained by dissolving them in DMSO. Individual wells of a 96-well tissue culture microtiter plate were inoculated with 100 μL of complete medium containing 8 × 10^3 cells. The plates were incubated at 37 °C in a humidified 5% CO2 incubator for 18 h prior to the experiments. After medium removal, 100 μL of fresh medium containing the test compound at different concentrations was added to each well in triplicate and incubated at 37 °C for 72 h. The percentage of DMSO in the medium never exceeded 0.25%. This was also the maximum DMSO concentration in all cell-based assays described below.

[2] = test system: RS 4;11; assay: Antiproliferative MTT assay, RS 4;11; format: cell-based, human; conditions: mean ± SE
Protocol: as §1

[3] = test system: MCF-7; assay: Antiproliferative MTT assay, MCF-7; format: cell-based, human; conditions: mean ± SE
Protocol: as §1

[4] = test system: HT-29; assay: Antiproliferative MTT assay, HT-29; format: cell-based, human; conditions: mean ± SE
Protocol: as §1

[5] = test system: SEM cells; assay: Antiproliferative MTT assay, SEM; format: cell-based, human; conditions: 72 h, mean ± SE
Protocol: as §1

[6] = test system: A549; assay: Antiproliferative MTT assay, A549; format: cell-based, human; conditions: mean ± SE
Protocol: as §1

[7] = test system: HeLa; assay: Antiproliferative MTT assay, HeLa; format: cell-based, human; conditions: 72 h, mean ± SE
Protocol: as §1

[8] = test system: panel of seven human tumor cell lines; assay: Antiproliferative activity, range over panel of seven human tumor cell lines; format: cell-based
Protocol: as §1

[9] = test system: tubulin; assay: Inhibition of [3H]colchicine binding to tubulin; conditions: tubulin 1 μM, [3H]colchicine 5 μM
Protocol: (§2) To evaluate the effect of the compounds on tubulin assembly in vitro[41], varying concentrations of compounds were preincubated with 10 μM bovine brain tubulin in 0.8 M monosodium glutamate (pH adjusted to 6.6 with HCl in a 2.0 M stock solution) at 30 °C and then cooled to 0 °C. After addition of 0.4 mM GTP, the mixtures were transferred to 0 °C cuvettes in a recording spectrophotometer and warmed to 30 °C. Tubulin assembly was followed turbidimetrically at 350 nm. […] The capacity of the test compounds to inhibit colchicine binding to tubulin was measured as described, except that the reaction mixtures contained 1 μM tubulin, 5 μM [^3H]colchicine and 1 or 5 μM test compound.

[10] = test system: bovine brain tubulin; assay: Inhibition of tubulin polymerization; format: biochemical; conditions: tubulin at 10 μM; read-out: Tubulin assembly IC50 ± S.D
Protocol: as §2

[11] = Homo sapiens, read-out: IC50 values, range over the cell line panel

Compound | IC50 ([1]; Homo sapiens, Jurkat) [nM] | IC50 ([2]; Homo sapiens, RS4-11, 72 h) [nM] | IC50 ([3]; Homo sapiens, MCF7, 72 h) [nM] | IC50 ([4]; Homo sapiens, HT-29, 72 h) [nM] | IC50 ([5]; Homo sapiens) [nM] | IC50 ([6]; Homo sapiens, A549, 72 h) [nM] | IC50 ([7]; Homo sapiens, HeLa) [nM] | Colchicine binding % inhibition ± S.D, 5 μM drug [9] | melting point [°C] | IC50 [10] [nM] | further results
5-(3,4,5-Trimethoxyphenyl)-4-(3-methoxyphenyl)-2-methyloxazole [Compound 4f] |  |  |  |  |  |  |  |  |  |  | IC50 [1]: 5230 ± 88.2 nM; IC50 ([2]; 72 h): 5330 ± 167 nM; IC50 ([3]; 72 h): > 10000 nM; IC50 ([4]; 72 h): > 10000 nM; IC50 [5]: 3630 ± 171 nM; IC50 ([6]; 72 h): > 10000 nM; IC50 [7]: > 10000 nM
5-(3,4,5-Trimethoxyphenyl)-4-(4-chlorophenyl)-2-methyloxazole [Compound 4c] |  |  |  |  |  |  |  |  |  |  | IC50 [1]: 5580 ± 888 nM; IC50 ([2]; 72 h): 840 ± 260 nM; IC50 ([3]; 72 h): 2590 ± 447 nM; IC50 ([4]; 72 h): 1400 ± 384 nM; IC50 [5]: 2210 ± 256 nM; IC50 ([6]; 72 h): 8780 ± 2310 nM; IC50 [7]: 2820 ± 169 nM
5-(3,4,5-Trimethoxyphenyl)-4-(4-fluorophenyl)-2-methyloxazole [Compound 4b] |  |  |  |  |  |  |  |  |  |  | IC50 [1]: > 10000 nM; IC50 ([2]; 72 h): > 10000 nM; IC50 ([3]; 72 h): > 10000 nM; IC50 ([4]; 72 h): > 10000 nM; IC50 [5]: 9550 ± 2050 nM; IC50 ([6]; 72 h): > 10000 nM; IC50 ([8]; read-out: IC50 values against all cell lines screened): > 9000 nM; IC50 [7]: > 10000 nM
COc1ccc(-c2nc(C)sc2-c2cc(OC)c(OC)c(OC)c2)cc1 [Compound 3e, 2-methyl-4-(4′-methoxyphenyl)-5-(3′,4’,5′-trimethoxyphenyl)thiazole, reference compound] | 7200 ± 586 | 2970 ± 738 | 1930 ± 448 | 3700 ± 263 | 1980 ± 780 | 2760 ± 1200 | 1980 ± 780 |  |  |  | 
COc1cc(-c2nc(C)oc2-c2ccc(C)cc2)cc(OC)c1OC [Compound 4d, 4-(3,4,5-Trimethoxyphenyl)-2-methyl-5-p-tolyloxazole] | 102 ± 22.6 | 25.3 ± 3.2 | 244 ± 74.2 | 53 ± 24.6 | 134 ± 39.5 | 92.3 ± 21.5 | 31 ± 16 | 86% and 82 ± 3% | 110 to 112 | 660 | Colchicine binding % inhibition ± S.D, 1 μM drug [9]: 55 ± 3%; IC50 [8, 11]: 25 to 243 nM
COc1ccc(-c2oc(C)nc2-c2cc(OC)c(OC)c(OC)c2)cc1 [Compound 4e, 4-(3,4,5-Trimethoxyphenyl)-5-(4-methoxyphenyl)-2-methyloxazole] | 18.7 ± 6 | 7.6 ± 2.3 | 27.7 ± 12 | 40.8 ± 19.7 | 35.6 ± 12.5 | 179 ± 36.3 | 10.8 ± 4.7 | 78 ± 3% | 134 to 136 | 950 ± 100 | Colchicine binding % inhibition ± S.D, 1 μM drug [9]: 47 ± 4%
COc1ccc(-c2oc(C)nc2-c2cc(OC)c(OC)c(OC)c2)cc1F [Compound 4g, 5-(3-Fluoro-4-methoxyphenyl)-4-(3,4,5-trimethoxyphenyl)-2-methyloxazole] | 4.6 ± 1 | 0.35 ± 0.15 | 2.5 ± 0.7 | 3.3 ± 1.1 | 3.9 ± 0.8 | 0.65 ± 0.08 | 2.4 ± 0.6 | 78 ± 0.5% | 127 to 129 | 1200 | Colchicine binding % inhibition ± S.D, 1 μM drug [9]: 51 ± 1%; IC50 [8, 11]: 0.35 to 4.6 nM
COc1ccc(-c2oc(C)nc2-c2cc(OC)c(OC)c(OC)c2)cc1Cl [Compound 4h, 5-(3-Chloro-4-methoxyphenyl)-4-(3,4,5-trimethoxyphenyl)-2-methyloxazole] | 512 ± 92.7 | 47 ± 13.9 | 144 ± 64.3 | 207 ± 93 | 233 ± 34.6 | 138 ± 13.7 | 169 ± 75.5 |  | 150 to 152 |  | 
CCOc1ccc(-c2oc(C)nc2-c2cc(OC)c(OC)c(OC)c2)cc1Cl [Compound 4j, 5-(3-Chloro-4-ethoxyphenyl)-4-(3,4,5-trimethoxyphenyl)-2-methyloxazole] | 77.7 ± 6.1 | 20.2 ± 5.4 | 1.5 ± 0.6 | 0.9 ± 0.5 | 51 ± 13.5 | 20.3 ± 11.4 | 4.2 ± 1.3 | 53 ± 3% | 124 to 126 | 1800 ± 100 | 
COc1cc(-c2oc(C)nc2-c2ccc3ccccc3c2)cc(OC)c1OC [Compound 5a, 5-(3,4,5-Trimethoxyphenyl)-2-methyl-4-(naphthalen-3-yl)oxazole] | 638 ± 154 | 250 ± 89.3 | 5.2 ± 2.4 | 315 ± 145 |  | 45.2 ± 12.5 | 37 ± 14.4 | 64 ± 4% | 95 to 97 | 1600 ± 100 | 
COc1cc(-c2oc(C)nc2-c2ccc(F)cc2)cc(OC)c1OC [Compound 5b, 4-(4-Fluorophenyl)-5-(3,4,5-trimethoxyphenyl)-2-methyloxazole] | 9000 ± 577 | > 10000 | > 10000 | > 10000 | > 10000 | > 10000 | > 10000 |  | 132 to 133 |  | IC50 ([8]; Homo sapiens, read-out: IC50 values against all cell lines screened): > 9000 nM
COc1cc(-c2oc(C)nc2-c2ccc(Cl)cc2)cc(OC)c1OC [Compound 5c, 4-(4-Chlorophenyl)-5-(3,4,5-trimethoxyphenyl)-2-methyloxazole] | 5250 ± 0.934 | 815 ± 406 | > 10000 | > 10000 | 6570 ± 500 | > 10000 | 2560 ± 475 |  | 149 to 151 |  | 
COc1cc(-c2oc(C)nc2-c2ccc(C)cc2)cc(OC)c1OC [Compound 5d, 5-(3,4,5-Trimethoxyphenyl)-2-methyl-4-p-tolyloxazole] | 922 ± 76.6 | 635 ± 387 | 360 ± 52.6 | 523 ± 61.8 | 352 ± 77.8 | 2580 ± 289 | 148 ± 55.3 |  | 128 to 129 |  | 
COc1ccc(-c2nc(C)oc2-c2cc(OC)c(OC)c(OC)c2)cc1 [Compound 5e, 5-(3,4,5-Trimethoxyphenyl)-4-(4-methoxyphenyl)-2-methyloxazole] | 43.6 ± 12.3 | 17.3 ± 4.2 | 83.8 ± 20.2 | 12.3 ± 5.9 | 96.6 ± 22.5 | 243 ± 51.5 | 24 ± 10.5 | 54 ± 3% | 108 to 110 | 2600 ± 300 | 
